Laboratory results reported in US7101878B1 (Agouron Pharmaceuticals, Inc., priority 1998, dated 2006).
Like-named read-outs stand apart in the source and are kept apart here.

Key:
human GnRH receptor = molecular target: T1, human GnRH receptor (Homo sapiens, UniProt P30968); assay: Radioligand binding, 125I-GnRH-A displacement, membranes of HEK 293 cells with human GnRH receptor
T1 construct: expressed in transfected cells; host or cells: HEK 293 (hGnRH-R/293, from Dr. Stuart Sealfon)
T1 sequence (P30968 1-328): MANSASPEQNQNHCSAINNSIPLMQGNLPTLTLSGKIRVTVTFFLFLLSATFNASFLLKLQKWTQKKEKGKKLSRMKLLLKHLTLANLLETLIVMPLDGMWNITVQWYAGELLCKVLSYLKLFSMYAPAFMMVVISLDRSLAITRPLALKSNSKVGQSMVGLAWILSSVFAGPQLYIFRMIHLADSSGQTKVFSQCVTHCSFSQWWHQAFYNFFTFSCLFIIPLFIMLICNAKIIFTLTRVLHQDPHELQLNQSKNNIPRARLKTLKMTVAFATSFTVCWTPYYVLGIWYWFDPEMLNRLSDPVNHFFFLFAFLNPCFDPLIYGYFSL
How it was run: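 After filtration and PBS washes, bound radioactivity was counted by scintillation and IC50 derived. Identical conditions applied for non-human receptors.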

rat GnRH receptor = molecular target: T2, rat GnRH receptor (Rattus norvegicus, UniProt P30969); assay: Radioligand binding, 125I-GnRH-A, rat pituitary membranes; set-up: membranes were prepared from rat pituitary; from tissue; host or cells: rat pituitary
T2 sequence (P30969 1-327): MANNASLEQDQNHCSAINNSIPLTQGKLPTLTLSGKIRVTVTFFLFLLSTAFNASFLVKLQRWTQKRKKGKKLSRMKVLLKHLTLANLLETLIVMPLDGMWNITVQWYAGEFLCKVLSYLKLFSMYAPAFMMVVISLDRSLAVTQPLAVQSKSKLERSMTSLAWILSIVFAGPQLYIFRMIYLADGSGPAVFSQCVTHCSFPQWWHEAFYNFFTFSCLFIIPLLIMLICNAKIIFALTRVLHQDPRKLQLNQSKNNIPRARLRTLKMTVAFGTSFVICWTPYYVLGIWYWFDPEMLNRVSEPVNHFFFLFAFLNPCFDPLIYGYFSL
Protocol: (§1) All compounds were diluted in 1% DMSO (final assay concentration) in binding assay buffer. […] Reactions were terminated by rapid filtration onto 96-well Packard GF/C filters soaked in 0.1% polyethyleneimine. Filters were washed three times with PBS buffer, dried and counted on a Packard Topcount by liquid scintillation counting.
(§2) Assay conditions were identical for assessing compound activities at other species. […] IC50 values for control peptides and test compounds were calculated utilizing GraphPad Prism™ software.
(§3) The reaction mixture was vortexed and incubated for 1 min at room temperature. After one min, the mixture was vortexed and allowed to incubate for an additional minute. 2 ml of 0.5 M acetic acid/1% BSA was added to the reaction tube and the mixture was added to a C18 Sep-Pak cartridge. The cartridge was washed with subsequent washes of 5 ml H2O and 5 ml 0.5M acetic acid and then eluted with 5×1 ml of 60% CH3CN/40% 0.5M acetic acid. The eluate was diluted with 3× volume of HPLC buffer A (0.1% TFA in H2O) and loaded onto a C18 column. […] The radioactive fractions (750 ed/fraction) are collected into clean polypropylene tubes containing 100 μl of 10% BSA. Fractions were assessed for biological activity by radioligand binding.

mouse GnRH receptor = molecular target: T3, mouse GnRH receptor (Mus musculus, UniProt Q01776); assay: Radioligand binding, 125I-GnRH-A, 293 cells expressing mouse GnRH receptors
T3 construct: expressed in transfected cells; host or cells: 293 cells
T3 sequence (Q01776 1-327): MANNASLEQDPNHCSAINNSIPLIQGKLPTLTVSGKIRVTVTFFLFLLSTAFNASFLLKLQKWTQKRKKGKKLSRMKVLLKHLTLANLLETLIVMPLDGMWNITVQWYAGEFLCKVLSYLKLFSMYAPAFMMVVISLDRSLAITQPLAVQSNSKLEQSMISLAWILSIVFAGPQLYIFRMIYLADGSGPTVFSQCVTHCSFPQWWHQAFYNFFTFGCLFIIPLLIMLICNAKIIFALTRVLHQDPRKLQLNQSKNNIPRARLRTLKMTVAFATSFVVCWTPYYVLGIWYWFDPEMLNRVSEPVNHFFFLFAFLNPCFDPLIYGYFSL
How it was run: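 Bound label captured on 0.1% polyethyleneimine-treated GF/C filters, washed three times with PBS, counted. IC50 derived; identical set-up for every species.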

bovine GnRH receptor = molecular target: T4, bovine GnRH receptor (Bos taurus, UniProt P32236); assay: Radioligand binding, 125I-GnRH-A, bovine pituitary membranes
T4 construct: membranes were prepared from bovine pituitary; from tissue; host or cells: bovine pituitary
T4 sequence (P32236 1-328): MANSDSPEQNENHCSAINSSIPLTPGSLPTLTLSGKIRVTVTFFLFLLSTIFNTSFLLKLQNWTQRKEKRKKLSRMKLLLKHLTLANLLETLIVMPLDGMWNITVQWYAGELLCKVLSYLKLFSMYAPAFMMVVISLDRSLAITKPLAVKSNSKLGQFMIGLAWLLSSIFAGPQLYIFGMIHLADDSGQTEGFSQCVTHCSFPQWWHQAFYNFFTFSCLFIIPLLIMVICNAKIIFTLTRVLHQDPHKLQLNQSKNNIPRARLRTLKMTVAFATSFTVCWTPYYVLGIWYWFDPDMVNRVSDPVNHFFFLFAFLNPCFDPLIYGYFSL
Protocol: as §1, §2, §3

[1] = Metabolism rate, pmol/min/mg at 1 μM, human; format: in vitro ADME; details: 1 μM compound
[2] = Metabolism rate, pmol/min/mg at 1 μM, rat male; format: in vitro ADME; details: 1 μM compound
[3] = Pharmacokinetic studies / bioavailability in rats; format: in vivo, rat; details: for Cmax / Tmax / half-life: rat, plasma; for Cmax / Tmax: po
[4] = female, 10 mg/kg, rat female, p.o. 10 mg/kg, 5 mg/ml solution in 10% DMSO 10% cremophor 80% saline
[5] = male, 20 mg/kg, rat male, p.o. 20 mg/kg, vehicle per footnote (DMSO/cremophor/saline)

Row | SMILES | IC50 (human GnRH receptor; read-out: hGnRH IC50) [nM] | IC50 (rat GnRH receptor; read-out: rGnRH IC50) [nM] | IC50 (mouse GnRH receptor; read-out: mGnRH IC50) [nM] | Human pmol/min/mg 1 μM [1] [pmol/min/mg] | Rat male pmol/min/mg 1 μM [2] [pmol/min/mg] | also measured
1 | COc1cccc(CNC(=O)c2ccc(Cc3cc4c(cc3C)C(C)(C)CCC4(C)C)o2)c1OC [Compound 15] | 290 | – | – | – | – | IC50 (human GnRH receptor; means ± SE of at least three experiments performed in duplicate, read-out: Human IC50): 100 ± 17 nM; IC50 (rat GnRH receptor; means ± SE of at least three experiments performed in duplicate, read-out: Rat IC50): 70 ± 16 nM; IC50 (mouse GnRH receptor; means ± SE of at least three experiments performed in duplicate, read-out: Mouse IC50): 220 ± 50 nM; IC50 (bovine GnRH receptor; means ± SE of at least three experiments performed in duplicate, read-out: Bovine IC50): 1000 ± 240 nM
2 | Cc1cc2c(cc1Cc1ccc(C(=O)NCC3CCCC(CNC(=N)N)C3)o1)C(C)(C)CCC2(C)C (centres unmarked) [Compound 22] | 540 | 310 | 1100 | – | – | IC50 (bovine GnRH receptor; read-out: bGnRH IC50): 1710 nM
3 | COC(=O)[C@H]1CC[C@H](CNC(=O)c2ccc(Cc3cc4c(cc3C)C(C)(C)CCC4(C)C)o2)CC1 [Compound 68] | 90 | 890 | 1010 | 2716 | 8125 | –
4 | Cc1cc2c(cc1Cc1ccc(C(=O)NCC3CCC(CNc4nccc(NCC5CCCO5)n4)CC3)o1)C(C)(C)CCC2(C)C (centres unmarked) [Compound 92] | 80 | 27 | 42 | 241 | 1282 | –
5 | Cc1cc2c(cc1Cc1ccc(C(=O)NCc3cccc4ccccc34)o1)C(C)(C)CCC2(C)C [Compound 95] | 31 | 60 | 21 | 283 | 3356 | –
6 | Cc1cc2c(cc1Cc1ccc(C(=O)Nc3ccc4[nH]ccc4c3)o1)C(C)(C)CCC2(C)C [Compound 96] | 40 | 90 | 130 | 182 | 1692 | –
7 | COc1ccc(NC(=O)c2ccc(Cc3cc4c(cc3C)C(C)(C)CCC4(C)C)o2)c(OC)c1 [Compound 99] | 56 | 108 | 105 | 353 | 2549 | –
8 | Cc1cc2c(cc1Cc1ccc(C(=O)Nc3ccc4[nH]ncc4c3)o1)C(C)(C)CCC2(C)C [Compound 109] | 75 | 140 | 140 | 130 | 1055 | –
9 | COc1cccc(OC)c1NC(=O)c1ccc(Cc2c(C)cc(C)cc2C)o1 [Compound 126] | 128 | 325 | 684 | 544 | – | Cmax [3, 4]: 20 nM; Tmax [3, 4]: 0.5 h; half-life ([3]; female, rat female): 1.9 h; Fp.o. ([3]; rat female, 5 mg/ml solution in 10% DMSO 10% cremophor 80% saline): 2% (10 mg/kg)^10
10 | Cc1cc2c(cc1Cc1ccc(C(=O)NCc3cccc(CNc4nccc(N5CCOCC5)n4)c3)o1)C(C)(C)CCC2(C)C [Compound 150] | 80 | 8 | 13 | 655 | 3334 | –
11 | Cc1cc2c(cc1Cc1ccc(C(=O)NCc3cccc(CNc4ncc(C)c(NCC5CCCO5)n4)c3)o1)C(C)(C)CCC2(C)C (centres unmarked) [Compound 151] | 65 | 7.2 | 5.2 | 225 | 3043 | –
12 | COCCNc1nccc(NCc2cccc(CNC(=O)c3ccc(Cc4cc5c(cc4C)C(C)(C)CCC5(C)C)o3)c2)n1 [Compound 154] | 150 | 22 | 36 | 241 | 4481 | –
13 | Cc1cc2c(cc1Cc1ccc(C(=O)NC[C@H]3CC[C@H](C(N)=O)CC3)o1)C(C)(C)CCC2(C)C [Compound 156] | 24 | 270 | 400 | 867 | 2995 | –
14 | COc1cc(CO)cc(OC)c1NC(=O)c1ccc(Cc2cc3c(cc2C)C(C)(C)CCC3(C)C)o1 [Compound 159] | 45 | 5 | 16 | 793 | 6642 | –
15 | COc1cc(OC)c(NC(=O)c2ccc(Cc3c(C)cc(C)cc3C)o2)c(OC)c1 [Compound 168] | 230 | 130 | 130 | 407 | 1087 | half-life ([3]; male, iv, 10 mg/kg, rat male): 1.8 h; Cmax [3, 5]: 300 nM; Tmax [3, 5]: 1 h; Fp.o. ([3]; rat male, p.o. 20 mg/kg, vehicle per footnote (DMSO/cremophor/saline)): 1% (20 mg/kg)^6
16 | Cc1cc2c(cc1Cc1ccc(C(=O)NCc3cccc(CNc4ccnc(NC[C@@H]5CCCO5)n4)c3)o1)C(C)(C)CCC2(C)C [Compound 176] | – | 3 | 4 | 273 | 2341 | T1/2 ([3]; rat male): 2.8 h
